CC(C)(c1cc(Br)c(O)c(Br)c1)c1cc(Br)c(O)c(Br)c1
solubility (mole fraction)
Conditions	in ethanol	in ethyl acetate	in isopropanol	in methanol	in n-butanol	in n-butyl acetate	in n-pentanol	in n-propanol	in sec-butanol
298.15 K	0.0511	0.139	0.0242	0.0499	0.0511	0.142	0.0567	0.0452	0.0262
303.15 K	0.0516	0.139	0.0259	0.0511	0.0522	0.142	0.058	0.046	0.0288
308.15 K	0.0534	0.141	0.0284	0.0524	0.0542	0.144	0.0596	0.0476	0.0321
313.15 K	0.0558	0.144	0.031	0.0546	0.0573	0.146	0.0609	0.0502	0.0364
318.15 K	0.0577	0.147	0.0343	0.0564	0.0602	0.148	0.0634	0.0522	0.0399
323.15 K	0.0616	0.152	0.0381	0.0585	0.0642	0.151	0.0669	0.0553	0.045
328.15 K	0.0642	0.157	0.0435	0.0615	0.0678	0.155	0.0705	0.059	0.0502
333.15 K	0.0693	0.161	0.0484	–	0.0717	0.159	0.0752	0.063	0.056
